Measured values: patent US5426111A, “[Alkoxy-, alkenyloxy-, alkynyloxy-, and phenylmethyloxyalkoxycycloalkyl or alkoxycycloheteroalkyl]naphtho[2,3-c]furan-1(3H)-one inhibitors of 5-lipoxygenase” (Abbott Laboratories, priority 1994, dated 1995)

Tested on: LTB4 biosynthesis
Experiment: Calcium ionophore-induced LTB4 biosynthesis in human whole blood
Type: cell-based
Details: @ 100 nm; human heparinized whole blood, calcium ionophore A23187 challenge, LTB4 by radioimmunoassay
Description: Inhibition of leukotriene biosynthesis was evaluated in an assay, involving calcium ionophore-induced LTB4 biosynthesis expressed human whole blood. Human heparinized whole blood was preincubated with test compounds or vehicle for 15 min at 37° C. followed by calcium ionophore A23 187 challenge (final concentration of 8.3 μM) and the reaction terminated after 30 min by adding two volumes of methanol containing prostaglandin B2 as an internal recovery standard. The methanol extract was analyzed for LTB4 using a commercially available radioimmunoassay.

Structure (SMILES): COC1(/C=C/COc2ccc3c(-c4ccc(F)cc4)c4c(cc3c2)C(=O)OC4)CCOCC1 [Example 1, 4-(4-fluorophenyl)-7-[3-(4-methoxytetrahydro-2H-pyran-4-yl)-2-propenyloxy]naptho[2,3-c]furan-1(3H)-one]
- inhibition of leukotriene biosynthesis: 55%
